Results: patent US20190086390A1, “INDIRECT ASSESSMENT OF INSULIN RELEASE IN A CELL” (Board of Supervisors of Louisiana State University and …, priority 2016, published 2019)
Values joined by “and” are separate entries in the source; they are usually repeats but may differ in a detail not shown here. Equal entries are not always repeated. “Also recorded” adds a separate entry of the source.

Columns and labels:
Format in all cases: cell-based, rat
832/13 cells [1] = experiment: Glucose-stimulated insulin secretion (GSIS) in 832/13 cells, insulin ELISA; details: for decrease in GSIS: 1 ng/ml IL-1β
Description: 832/13 cells were grown in 12-well plates and treated as indicated. Glucose-stimulated insulin secretion (GSIS) assays were performed as described previously (29). Insulin secretion by cell lines into the media was measured using either the High Range Rat Insulin ELISA kit (Mercodia, Uppsala, Sweden) or by rat islets using the insulin radioimmunoassay (Siemens, Malvern, Pa.) according to the company directions. In addition, cells were lysed using M-PER lysis reagent (Thermo Fisher Scientific) to quantify total intracellular protein content via BCA assay (Thermo Fisher Scientific). Insulin secretion data were normalized to total protein to account for any differences in cell number between treatment groups. Incorporation of tritiated thymidine into DNA as a cellular index of proliferation was carried out as described (45).

CCL20 = CCL20 secretion into media of 832/13 cells, ELISA; details: glucose 2, 4, 8 or 16 mM; IL-1β 6 h
Description: 832/13 cells were grown in 12-well plates and treated as indicated. RPMI was supplemented with 0.3% BSA, and media were collected at the indicated time points. In addition, the cells were lysed using M-PER lysis reagent (Thermo Fisher Scientific) to quantify total intracellular protein content. CCL2 and CCL20 secretion into the media was measured by CCL2 Quantikine ELISA kit (R & D Systems, Minneapolis, Minn.) and CCL20 DuoSet ELISA kit (R & D Systems) according to the manufacturer's protocol. ELISA data were normalized to total protein to account for any differences in cell number between treatment groups.

832/13 cells [2] = experiment: Nitric oxide by EPR spectroscopy with (MGD)2Fe2+ spin trap; details: 1 ng/ml IL-1β 18 h
Description: The spin trap Af-methyl-d-glucamine dithiocarbamate-iron complex [(MGD)2-Fe^2+] was prepared fresh in each experiment by making stock solutions of 500 mM MGD and 100 mM Fe^2+ (from FeS04.7 H20) in ultrapure water under anaerobic conditions. A final concentration of 25 mM MGD and 5 mM Fe^2+ was introduced onto cells in culture using serum-free media with a 30-min incubation period. Supernatants were then collected for the measurements of the (MGD)2-iron-NO complex. All electron paramagnetic resonance (EPR) measurements were carried out in a quartz flat cell at room temperature. Samples were transferred directly into the flat cell, which was then placed into the cavity of a Bruker EMX Plus spectroscope. Typical instrumental conditions were as follows: 20 mW of microwave power, 5.0-G modulation amplitude, 1×10^5 gain, 0.163-s time constant, and 80-G scan range. Quantitation was carried out by measuring and comparing the first peak heights on the spectra.

Pdx-1 = Pdx-1 protein abundance, immunoblot; details: 832/13 cells, IL-1β 4 h
Description: Cell lysis and extraction of cytoplasmic and nuclear protein fractions was performed using the NE-PER kit (Thermo Fisher Scientific) according to the manufacturer's directions. The protein concentration of the lysate was determined using the bicinchoninic acid assay (Thermo Fisher Scientific), using BSA as the standard. SDS-PAGE, transfer to polyvi-nylidene difluoride membranes, membrane blocking before antibody incubation, and downstream subsequent detection using a ChemiDoc imaging system (Bio-Rad) have been described previously (16). Antibodies detecting β-actin or tubulin were used as loading controls. Antibodies used were from the following sources: iNOS (Santa Cruz Biotechnology), (3-actin (Cell Signaling Technology), Ikα: (Santa Cruz Biotechnology), tubulin (Cell Signaling Technology), and Pdx-1 (Cell Signaling Technology). The antibody recognizing Nkx6.1 has been described (34). Immunoblot images were quantified using Image Lab software (Bio-Rad).

832/13 and 833/15 cells = experiment: Mitochondrial/nuclear DNA ratio analysis; details: 6 or 18 h
Description: Genomic DNA was isolated using a DNeasy kit from Qiagen (Valencia, Calif.) per the manufacturer's protocol and quantified via quantitative PCR using iTaq Universal SYBR Green Supermix (Bio-Rad). Mitochondrial number was determined as the expression of genes encoded by mitochondrial DNA (COI and ATP6) relative to nuclear genes (NDUFA and SDHA) using the AACT method. This methodology has been described previously (24).

832/13 cells [3] = experiment: Oxygen consumption rate (Seahorse XF24); details: 1 ng/ml IL-1β, 18 h
Description: Oxygen consumption rates (OCR) were measured using the XF^24 Extracellular Flux Analyzer (Seahorse Bioscience, Chicopee, Mass.). 832/13 cells were grown on cell culture plates for 2 days prior to OCR assays being run. Cells were treated with vehicle, 1 ng/ml IL-β, 1 mM I-NMMA, or both IL-1β (1 ng/ml) plus I-NMMA (1 mM) for 18 h prior to OCR being measured. The oxygen consumption rate was measured over a 2-h period. Data represent the calculated average area under the curve from six wells per treatment group over multiple independent experiments.

[4] = test system: voltage-gated Ca^2+ channels; experiment: Whole cell voltage clamp recordings; details: n=25; for cell size (whole cell capacitance) vs control: IL-1β pretreatment
Text: Cell culture dishes were mounted on the stage of an Olympus K70 inverted microscope. A reference Ag/AgCl pellet served to ground the bath. Patch electrodes were pulled from thick-walled borosilicate glass with a filament (outer diameter 1.5 mm; inner diameter: 0.86 mm; Sutter Instruments, Novato, Calif.) using a Haming-Brown Micropipette Puller (Sutter Instruments). Electrode resistance values ranged from 4 to 7 Mfl. Ruptured patch, whole cell voltage clamp recordings were made using an Axopatch ID-patch clamp amplifier (Molecular Devices, Sunnyvale, Calif.). Data were recorded using pClamp 10.0 software (Molecular Devices). Unless otherwise indicated, all reagents were purchased from Sigma-Aldrich (St. Louis, Mo.). External solutions consisted of the following (in mM): 116.7 NaCl, 20.0 TEAC1, 3.0 CaCl2, 0.4 MgCl2, 4.0 glucose, and 10.0 HEPES. Voltage clamp experiments were performed in the ruptured patch configuration using the following internal solution (in mM): 100.00 CsAc, 10.0 CsCl, 2.0 MgCl2, 0.1 CaCl2, and 10.0 HEPES. Also included was an ATP regeneration system to preserve Ca^2+ currents [3.0 ATP (dipotassium), 1.0 ATP (disodium), 20.0 phosphocreatine, 2.0 GTP, and 50 U/ml creatine phos-phokinase]. Cesium was used as a substitute for K^+ to minimize currents through voltage-gated K^+ channels. Tetrodotoxin (300 nM; Alomone Laboratories, Jerusalem, Israel) was included in the external solution to block voltage-gated Na^+ currents. The liquid junction potential error for these solutions was estimated to be −13 mV (pClamp). Solutions were adjusted to pH 7.4 with NaOH for external solutions and with CsOH for internal solutions. A pressurized gravity flow perfusion system (1.5-2 mi/min) was used to deliver the external solutions (AutoMate Scientific, Berkeley, Calif.).

## IL-1β: proinflammatory cytokine purchased from Thermo Fisher Scientific, used at 1 ng/ml
832/13 cells [1]; 6 h
  decrease in GSIS: 40% and 36%
832/13 cells [1]; 12 h
  decrease in GSIS: 59%
832/13 cells [1]; IL-1β
  time by which insulin secretion began to decrease: ≤ 6 h
832/13 cells [1]; IL-1β, associated with 13-fold increase in nitrite, time not given
  diminution in GSIS: 54%
CCL20
  IL-1β-induced secretion of CCL20 over a range of glucose concentrations: not different
832/13 cells [2]
  nitric oxide production in response to IL-1β: robust production of nitric oxide
Pdx-1
  amount of Pdx-1 protein: unchanged
832/13 and 833/15 cells
  mitochondrial/nuclear DNA ratios: did not detect any alterations
832/13 cells [3]
  decrease in cellular oxygen consumption rate: 25%
[4]
  cell size (whole cell capacitance) vs control: no effect on cell size
[4]; listed as IL-I1β
  cell size (whole cell capacitance) vs control: not significantly different
[4]; IL-1β-treated 832/13 cells, step to −3 mV
  voltage-gated Ca^2+ current density vs control: not significantly different; also recorded: No significant difference
